In ChEMBL document CHEMBL1926526, “Mefloquine-oxazolidine derivatives, derived from mefloquine and arenecarbaldehydes: In vitro activity including against the multidrug-resistant tuberculosis strain T113” (Bioorg Med Chem, 2012) one finds MIC and Activity data, which are given here for 19 compounds.

≈ marks a conversion by molar mass, not a printed value. Calls of active or inactive are those of the source.

The subject of this assay is Mycobacterium tuberculosis. Put plainly: Antimycobacterial activity against multiple drug-resistant Mycobacterium tuberculosis isolate T113 by alamar blue assay. In kind it is functional.
By MIC is commonly meant the smallest concentration in the dilution series that meets the test's criterion for growth inhibition. A higher MIC goes with weaker potency. Take `O=[N+]([O-])c1ccc(C2O[C@@H](c3cc(C(F)(F)F)nc4c(C(F)(F)F)cccc34)[C@H]3CCCCN23)o1` (mixture of isomers): the MIC turned out to be 99.8 µM. Compound `FC(F)(F)c1cc([C@@H]2OC(c3ncc[nH]3)N3CCCC[C@H]23)c2cccc(C(F)(F)F)c2n1` (mixture of isomers) came in with an MIC of 27.4 µM. Compound `COc1cccc(C2O[C@@H](c3cc(C(F)(F)F)nc4c(C(F)(F)F)cccc34)[C@H]3CCCCN23)c1` (mixture of isomers) yielded an MIC of 25.2 µM. `FC(F)(F)c1cc([C@@H]2OC(c3ccc(Cl)cc3Cl)N3CCCC[C@H]23)c2cccc(C(F)(F)F)c2n1` (mixture of isomers): the result was inactive.

Compound `CCOc1cccc(C2O[C@@H](c3cc(C(F)(F)F)nc4c(C(F)(F)F)cccc34)[C@H]3CCCCN23)c1` (mixture of isomers) returned an MIC of 24.5 µM. As for `FC(F)(F)c1cc([C@@H]2OC(c3c(Cl)cccc3Cl)N3CCCC[C@H]23)c2cccc(C(F)(F)F)c2n1` (mixture of isomers), the outcome was inactive.

`FC(F)(F)c1cc([C@@H]2OC(c3cccc(Cl)c3Cl)N3CCCC[C@H]23)c2cccc(C(F)(F)F)c2n1` (mixture of isomers): the result was inactive. `COc1ccccc1C1O[C@@H](c2cc(C(F)(F)F)nc3c(C(F)(F)F)cccc23)[C@H]2CCCCN12` (mixture of isomers) had an MIC of 12.6 µM. This counts as double-digit micromolar. The compound `OC(c1cc(C(F)(F)F)nc2c(C(F)(F)F)cccc12)C1CCCCN1` (centres undefined) [MEFLOQUINE] yielded an MIC of 33 µM (≈ 12.5 µg/mL). On the same count and under the same terms, to `COc1cccc(C2O[C@@H](c3cc(C(F)(F)F)nc4c(C(F)(F)F)cccc34)[C@H]3CCCCN23)c1OC` (mixture of isomers) belongs 11.9 µM.

Turning to `FC(F)(F)c1cc([C@@H]2OC(c3ccc(Cl)c(Cl)c3)N3CCCC[C@H]23)c2cccc(C(F)(F)F)c2n1` (mixture of isomers), the result was inactive.

As to `COc1ccc(C2O[C@@H](c3cc(C(F)(F)F)nc4c(C(F)(F)F)cccc34)[C@H]3CCCCN23)cc1` (mixture of isomers), the lowest concentration to inhibit growth (MIC) was 25.2 µM.

`CC[C@@H](CO)NCCN[C@@H](CC)CO` [ETHAMBUTOL] came in with an MIC of 61.2 µM (≈ 12.5 µg/mL). On to `Oc1ccccc1C1O[C@@H](c2cc(C(F)(F)F)nc3c(C(F)(F)F)cccc23)[C@H]2CCCCN12` (mixture of isomers), for which the MIC is 25.9 µM. As to `FC(F)(F)c1cc([C@@H]2OC(c3ccccc3)N3CCCC[C@H]23)c2cccc(C(F)(F)F)c2n1` (mixture of isomers), the MIC was found to be 26.8 µM. Take `COc1cc(C2O[C@@H](c3cc(C(F)(F)F)nc4c(C(F)(F)F)cccc34)[C@H]3CCCCN23)cc(OC)c1OC` (mixture of isomers): the MIC is 22.5 µM. The MIC values of the last two compounds are within 1.5-fold of each other. In the case of `Oc1ccc(C2O[C@@H](c3cc(C(F)(F)F)nc4c(C(F)(F)F)cccc34)[C@H]3CCCCN23)cc1` (mixture of isomers), the MIC was 25.9 µM. The compound `O=[N+]([O-])c1ccc(C2O[C@@H](c3cc(C(F)(F)F)nc4c(C(F)(F)F)cccc34)[C@H]3CCCCN23)s1` (mixture of isomers) registered an MIC of 12.1 µM.

Compound `Fc1ccc(C2O[C@@H](c3cc(C(F)(F)F)nc4c(C(F)(F)F)cccc34)[C@H]3CCCCN23)cc1` (mixture of isomers) gave an MIC of 25.8 µM.
